# Reference: US7045606B2, “Bifunctional chelating agent for actinium” (European Community, priority 2001, dated 2006)
# Assay: complexation properties of chelating agents with 225Ac
# Format: physicochemical
# Conditions: compared with the non-functionalised chelating agents EDTA, DTPA, DOTA, PEPA, HEHA, HOHEC and EDTMP
# Experimental: Different non-functionalised chelating agents (commercially available or readily synthesised in the laboratory) bearing aminocarboxylate groups (EDTA, DTPA, DOTA, PEPA, HEHA and HOHEC) or aminophosphonate groups (EDTMP) were tested for their complexation properties with ^225Ac. […] Polyaza polycarboxylic macrocycles are known to form thermodynamically stable complexes with large metal ions such as actinides and lanthanides.
smiles,measurement,value
"O=C(O)CN1CCN(CC(=O)O)CCN(CC(=O)O)CCN(CC(=O)O)CCN(CC(=O)O)CCN(CC(=O)O)CCN(CC(=O)O)CCN(CC(=O)O)CC1 [HOTEC, 1,4,7,10,13, 16,19,22-octacarboxylmethyl-1,4,7,10,13,16,19,22-octaazacyclotetracosane]",complexation properties with ^225Ac,best candidate
